# Results taken from US10758534B2 (Vertex Pharmaceuticals Incorporated, priority 2014, dated 2020).
# Biological target: T1, F508del (Homo sapiens, UniProt P13569, DEL508-508)
# T1 construct: expressed in transfected cells
# Test: Protocol 2: FRET membrane potential optical assay (VIPR), identification of correction compounds
# Assay type: cell-based
# Conditions: F508del CFTR modulator activity; compounds of Table 1; read-out: EC30
# Outline: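 NIH3T3 mouse fibroblasts stably expressing F508del-CFTR incubated with compound 16 h at 37 °C in serum-free medium, then loaded with CC2-DMPE/DiSBAC2(3) FRET dyes. Channel activated with 10 μM forskolin plus 20 μM genistein in Cl⁻-free (gluconate) bath; depolarisation from Cl⁻ efflux read on VIPR II.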
# T1 sequence (P13569 with tags, fused parts or gaps DEL508-508): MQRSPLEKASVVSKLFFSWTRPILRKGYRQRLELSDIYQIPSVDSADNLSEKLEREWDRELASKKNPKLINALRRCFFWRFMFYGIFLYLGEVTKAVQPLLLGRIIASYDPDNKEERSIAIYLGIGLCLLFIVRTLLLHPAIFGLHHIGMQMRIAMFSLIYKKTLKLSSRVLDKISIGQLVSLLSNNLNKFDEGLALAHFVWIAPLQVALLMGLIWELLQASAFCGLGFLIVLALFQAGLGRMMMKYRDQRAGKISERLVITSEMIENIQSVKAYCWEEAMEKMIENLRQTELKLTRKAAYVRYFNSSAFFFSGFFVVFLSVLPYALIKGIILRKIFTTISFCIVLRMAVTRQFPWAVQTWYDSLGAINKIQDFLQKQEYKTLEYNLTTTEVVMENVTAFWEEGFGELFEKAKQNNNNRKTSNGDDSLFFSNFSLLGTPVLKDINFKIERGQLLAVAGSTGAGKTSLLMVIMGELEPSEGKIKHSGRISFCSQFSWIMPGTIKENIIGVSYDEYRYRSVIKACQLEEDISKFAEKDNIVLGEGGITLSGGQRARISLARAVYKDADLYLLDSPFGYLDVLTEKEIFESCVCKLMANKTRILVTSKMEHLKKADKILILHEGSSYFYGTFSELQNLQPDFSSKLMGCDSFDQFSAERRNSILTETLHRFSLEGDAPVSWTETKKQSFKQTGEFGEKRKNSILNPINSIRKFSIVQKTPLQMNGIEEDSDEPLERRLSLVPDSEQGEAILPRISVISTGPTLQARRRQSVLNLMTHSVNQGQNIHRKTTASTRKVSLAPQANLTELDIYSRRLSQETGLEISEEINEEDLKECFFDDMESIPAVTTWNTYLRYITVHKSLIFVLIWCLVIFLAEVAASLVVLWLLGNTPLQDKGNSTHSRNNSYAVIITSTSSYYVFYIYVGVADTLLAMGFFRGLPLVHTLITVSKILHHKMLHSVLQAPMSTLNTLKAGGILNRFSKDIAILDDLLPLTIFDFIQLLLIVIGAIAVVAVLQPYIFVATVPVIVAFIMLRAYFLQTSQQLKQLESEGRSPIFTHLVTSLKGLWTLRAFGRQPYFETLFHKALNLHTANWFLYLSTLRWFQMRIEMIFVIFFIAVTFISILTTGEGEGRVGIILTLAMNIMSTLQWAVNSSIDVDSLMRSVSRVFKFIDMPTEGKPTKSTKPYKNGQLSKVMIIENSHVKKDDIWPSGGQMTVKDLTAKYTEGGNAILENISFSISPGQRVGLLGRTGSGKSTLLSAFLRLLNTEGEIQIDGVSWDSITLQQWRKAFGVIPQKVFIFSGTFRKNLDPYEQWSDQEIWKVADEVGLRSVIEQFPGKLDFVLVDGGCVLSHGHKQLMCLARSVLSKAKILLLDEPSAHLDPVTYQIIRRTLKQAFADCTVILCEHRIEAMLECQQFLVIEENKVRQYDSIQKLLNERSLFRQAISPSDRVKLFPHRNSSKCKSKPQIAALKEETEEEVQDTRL
row,Structure (SMILES),EC30
1,"CC(C)COc1cc(F)cc(-c2ccc(C(=O)NS(=O)(=O)c3cccc(N)n3)c(N3CCC(C)CC3(C)C)n2)c1 (centres unmarked) [Compound 2581, N-[(6-amino-2-pyridyl)sulfonyl]-6-(3-fluoro-5-isobutoxy-phenyl)-2-(2,2,4-trimethyl-1-piperidyl)pyridine-3-carboxamide]",< 3000 nM
2,"COCCOc1ncc(-c2ccc(C(=O)NS(=O)(=O)c3cccc(N)n3)c(N3C[C@@H](C)CC3(C)C)n2)cc1C [Compound 2582, N-[(6-amino-2-pyridyl)sulfonyl]-6-[6-(2-methoxyethoxy)-5-methyl-3-pyridyl]-2-[(4S)-2,2,4-trimethylpyrrolidin-1-yl]pyridine-3-carboxamide]",< 3000 nM
3,"C[C@@H]1CN(c2nc(-c3cccc4c3OCC4)ccc2C(=O)NS(=O)(=O)c2ccc[nH]c2=O)C(C)(C)C1 [Compound 2583, 6-(2,3-dihydrobenzofuran-7-yl)-N-[(2-oxo-1H-pyridin-3-yl)sulfonyl]-2-[(4S)-2,2,4-trimethylpyrrolidin-1-yl]pyridine-3-carboxamide]",3000 to 10000 nM
4,"CC1CN(c2ncc(-c3ccccc3C#N)cc2C(=O)NS(=O)(=O)c2cccc(N)n2)C(C)(C)C1 (centres unmarked) [Compound 2584, N-[(6-amino-2-pyridyl)sulfonyl]-5-(2-cyanophenyl)-2-(2,2,4-trimethylpyrrolidin-1-yl)pyridine-3-carboxamide]",3000 to 10000 nM
5,"CC1CN(c2ncccc2C(=O)NS(=O)(=O)c2cccc(OCc3ccc(Cl)cc3)n2)C(C)(C)C1 (centres unmarked) [Compound 2585, N—[[6-[(4-chlorophenyl)methoxy]-2-pyridyl]sulfonyl]-2-(2,2,4-trimethylpyrrolidin-1-yl)pyridine-3-carboxamide]",< 3000 nM
6,"C[C@@H]1CN(c2nc(N3CCOC(C)(C)C3)c(F)cc2C(=O)NS(=O)(=O)c2cccc(N)n2)C(C)(C)C1 [Compound 2586, N-[(6-amino-2-pyridyl)sulfonyl]-6-(2,2-dimethylmorpholin-4-yl)-5-fluoro-2-[(4S)-2,2,4-trimethylpyrrolidin-1-yl]pyridine-3-carboxamide]",3000 to 10000 nM
7,"Cc1ccc(-c2ccc(C(=O)NS(=O)(=O)N3CC[C@H](N)C3)c(N3C[C@@H](C)CC3(C)C)n2)cc1F [Compound 2587, N-[(3S)-3-aminopyrrolidin-1-yl]sulfonyl-6-(3-fluoro-4-methyl-phenyl)-2-[(4S)-2,2,4-trimethylpyrrolidin-1-yl]pyridine-3-carboxamide]",3000 to 10000 nM
8,"Cc1ccc(OCc2ccccc2)cc1-c1cnc(N2CC(C)CC2(C)C)c(C(=O)NS(=O)(=O)c2cccc(N)n2)c1 (centres unmarked) [Compound 2588, N-[(6-amino-2-pyridyl)sulfonyl]-5-(5-benzyloxy-2-methyl-phenyl)-2-(2,2,4-trimethylpyrrolidin-1-yl)pyridine-3-carboxamide]",< 3000 nM
9,"CC(C)COc1cc(F)cc(-c2ccc(C(=O)NS(=O)(=O)c3cccc(N)n3)c(N3CC4(CCC4)CC3(C)C)n2)c1 [Compound 2589, N-[(6-amino-2-pyridyl)sulfonyl]-2-(6,6-dimethyl-7-azaspiro[3.4]octan-7-yl)-6-(3-fluoro-5-isobutoxy-phenyl)pyridine-3-carboxamide]",< 3000 nM
10,"C[C@@H]1CN(c2nc(-c3ccc(CO)cc3)ccc2C(=O)NS(=O)(=O)c2cccnc2N)C(C)(C)C1 [Compound 2590, N-[(2-amino-3-pyridyl)sulfonyl]-6-[4-(hydroxymethyl)phenyl]-2-[(4S)-2,2,4-trimethylpyrrolidin-1-yl]pyridine-3-carboxamide]",< 3000 nM
11,"CC1CN(c2ncccc2C(=O)NS(=O)(=O)c2cccc(Oc3cc(F)ccc3Cl)n2)C(C)(C)C1 (centres unmarked) [Compound 2591, N—[[6-(2-chloro-5-fluoro-phenoxy)-2-pyridyl]sulfonyl]-2-(2,2,4-trimethylpyrrolidin-1-yl)pyridine-3-carboxamide]",< 3000 nM
12,"Cc1cccc(-c2ccc(C(=O)NS(=O)(=O)c3cccnc3N)c(N3C[C@@H](C)CC3(C)C)n2)c1O [Compound 2592, N-[(2-amino-3-pyridyl)sulfonyl]-6-(2-hydroxy-3-methyl-phenyl)-2-[(4S)-2,2,4-trimethylpyrrolidin-1-yl]pyridine-3-carboxamide]",< 3000 nM
13,"C[C@@H]1CN(c2nc(-c3cccc(C(F)(F)F)c3)ccc2C(=O)NS(=O)(=O)c2cccnc2N)C(C)(C)C1 [Compound 2593, N-[(2-amino-3-pyridyl)sulfonyl]-6-[3-(trifluoromethyl)phenyl]-2-[(4S)-2,2,4-trimethylpyrrolidin-1-yl]pyridine-3-carboxamide]",< 3000 nM
14,"CC1CN(c2ncccc2C(=O)NS(=O)(=O)c2cccc(OCC3COc4ccccc4C3)n2)C(C)(C)C1 (centres unmarked) [Compound 2595, N—[[6-(chroman-3-ylmethoxy)-2-pyridyl]sulfonyl]-2-(2,2,4-trimethylpyrrolidin-1-yl)pyridine-3-carboxamide]",< 3000 nM
15,"C[C@@H]1CN(c2nc(C(C)(C)C)c(C3=CCN(C(=O)CC4CCCCC4)CC3)cc2C(=O)NS(=O)(=O)c2cccc(N)n2)C(C)(C)C1 [Compound 2596, N-[(6-amino-2-pyridyl)sulfonyl]-6-tert-butyl-5-[1-(2-cyclohexylacetyl)-3,6-dihydro-2H-pyridin-4-yl]-2-[(4S)-2,2,4-trimethylpyrrolidin-1-yl]pyridine-3-carboxamide]",< 3000 nM

# Second part, the compound after the results:
row,EC30,Structure (SMILES)
1,3000 to 10000 nM,"CC1CN(c2ncccc2C(=O)NS(=O)(=O)c2cccc(NCc3ccco3)n2)C(C)(C)C1 (centres unmarked) [Compound 2597, N—[[6-(2-furylmethylamino)-2-pyridyl]sulfonyl]-2-(2,2,4-trimethylpyrrolidin-1-yl)pyridine-3-carboxamide]"
2,< 3000 nM,"CC1CN(c2ncccc2C(=O)NS(=O)(=O)c2cccc(Oc3cc(Cl)ccc3F)n2)C(C)(C)C1 (centres unmarked) [Compound 2598, N—[[6-(5-chloro-2-fluoro-phenoxy)-2-pyridyl]sulfonyl]-2-(2,2,4-trimethylpyrrolidin-1-yl)pyridine-3-carboxamide]"
3,3000 to 10000 nM,"Nc1cccc(S(=O)(=O)NC(=O)c2cccnc2NC2CCCCC2C2CCCCC2)n1 (centres unmarked) [Compound 2599, N-[(6-amino-2-pyridyl)sulfonyl]-2-[(2-cyclohexylcyclohexyl)amino]pyridine-3-carboxamide]"
4,< 3000 nM,"CC1CN(c2ncccc2C(=O)NS(=O)(=O)c2cccc(OCc3cccc(-n4cccc4)c3)n2)C(C)(C)C1 (centres unmarked) [Compound 2600, N—[[6-[(3-pyrrol-1-ylphenyl)methoxy]-2-pyridyl]sulfonyl]-2-(2,2,4-trimethylpyrrolidin-1-yl)pyridine-3-carboxamide]"
5,3000 to 10000 nM,"CC1CN(c2ncccc2C(=O)NS(=O)(=O)c2cccc(N3CCN(C4CCCCC4)CC3)n2)C(C)(C)C1 (centres unmarked) [Compound 2601, N—[[6-(4-cyclohexylpiperazin-1-yl)-2-pyridyl]sulfonyl]-2-(2,2,4-trimethylpyrrolidin-1-yl)pyridine-3-carboxamide]"
6,3000 to 10000 nM,"CCCOCCNc1cccc(S(=O)(=O)NC(=O)c2cccnc2N2CC(C)CC2(C)C)n1 (centres unmarked) [Compound 2602, N—[[6-(2-propoxyethylamino)-2-pyridyl]sulfonyl]-2-(2,2,4-trimethylpyrrolidin-1-yl)pyridine-3-carboxamide]"
7,< 3000 nM,"C[C@@H]1CN(c2nc(-n3cc(OCC(C)(C)C)cn3)ccc2C(=O)NS(=O)(=O)c2cccc(N)n2)C(C)(C)C1 [Compound 2603, N-[(6-amino-2-pyridyl)sulfonyl]-6-[4-(2,2-dimethylpropoxy)pyrazol-1-yl]-2-[(4S)-2,2,4-trimethylpyrrolidin-1-yl]pyridine-3-carboxamide]"
8,3000 to 10000 nM,"Cc1ccc(-c2ccc(C(=O)NS(=O)(=O)N3CC[C@H](N)C3)c(N3C[C@@H](C)CC3(C)C)n2)cc1C [Compound 2605, N-[(3S)-3-aminopyrrolidin-1-yl]sulfonyl-6-(3,4-dimethylphenyl)-2-[(4S)-2,2,4-trimethylpyrrolidin-1-yl]pyridine-3-carboxamide]"
9,< 3000 nM,"COc1ccc(F)c(-c2ccc(C(=O)NS(=O)(=O)c3ccc[nH]c3=O)c(N3C[C@@H](C)CC3(C)C)n2)c1 [Compound 2606, 6-(2-fluoro-5-methoxy-phenyl)-N-[(2-oxo-1H-pyridin-3-yl)sulfonyl]-2-[(4S)-2,2,4-trimethylpyrrolidin-1-yl]pyridine-3-carboxamide]"
10,< 3000 nM,"COc1cc(C)c(-c2ccc(C(=O)NS(=O)(=O)c3cccnc3N)c(N3C[C@@H](C)CC3(C)C)n2)c(C)c1 [Compound 2607, N-[(2-amino-3-pyridyl)sulfonyl]-6-(4-methoxy-2,6-dimethyl-phenyl)-2-[(4S)-2,2,4-trimethylpyrrolidin-1-yl]pyridine-3-carboxamide]"
11,< 3000 nM,"CC(C)Oc1c(F)cc(-c2ccc(C(=O)NS(=O)(=O)c3cccc(N)n3)c(N3C[C@@H](C)CC3(C)C)n2)cc1F [Compound 2608, N-[(6-amino-2-pyridyl)sulfonyl]-6-(3,5-difluoro-4-isopropoxy-phenyl)-2-[(4S)-2,2,4-trimethylpyrrolidin-1-yl]pyridine-3-carboxamide]"
12,< 3000 nM,"CC1CN(c2ncccc2C(=O)NS(=O)(=O)c2cccc(N3CCCC3C)n2)C(C)(C)C1 (centres unmarked) [Compound 2609, N—[[6-(2-methylpyrrolidin-1-yl)-2-pyridyl]sulfonyl]-2-(2,2,4-trimethylpyrrolidin-1-yl)pyridine-3-carboxamide]"
13,< 3000 nM,"C#Cc1ccc(COc2cccc(S(=O)(=O)NC(=O)c3cccnc3N3CC(C)CC3(C)C)n2)cc1 (centres unmarked) [Compound 2610, N—[[6-[(4-ethynylphenyl)methoxy]-2-pyridyl]sulfonyl]-2-(2,2,4-trimethylpyrrolidin-1-yl)pyridine-3-carboxamide]"
14,< 3000 nM,"CC1CN(c2ncccc2C(=O)NS(=O)(=O)c2cccc(Oc3ccc4ccccc4c3)n2)C(C)(C)C1 (centres unmarked) [Compound 2611, N—[[6-(2-naphthyloxy)-2-pyridyl]sulfonyl]-2-(2,2,4-trimethylpyrrolidin-1-yl)pyridine-3-carboxamide]"
